# Laboratory results as given in US10183047B2, “Chromium-containing compositions in combination with Phyllanthus emblica and shilajit having synergistic effects for improving endothelial function and cardiovascular health” (Natreon, Inc., priority 2014, dated 2019).
# Tests used:
# Type in all cases: in vivo, human
# nitric oxide (NO) [1] = assay: Nitric oxide level, metabolic syndrome subjects
# Method: (§1) Nitric oxide, MDA, Glutathione and levels were estimated spectrophotometrically as follows. Malondialdehyde (MDA) levels were determined as described in Vidyasagar, et al., “Oxidative stress and antioxidant status in acute organophosphorous insecticide poisoning,” Indian J. Pharmacol. (April 2004) 36(2): 76-79. Glutathione levels were determined as described in G. L. Ellman, Arch. Biochem. Biophys. (1959) 82: 70-77 (original determination). Nitric oxide levels were estimated spectrophotometrically as described in Miranda, et al., “A Rapid, Simple Spectrophotometric Method for Simultaneous Detection of Nitrate and Nitrite,” NITRIC OXIDE: Biology and Chemistry (2001) Vol. 5, No. 1, pp. 62-71. hsCRP (high sensitivity C-reactive protein) was determined by ELISA method.
# (§2) Patients included in the study, were of either gender, aged 30-68 years, having endothelial dysfunction defined as ≤6% change in reflection index (RI) on post salbutamol challenge test and central obesity as defined by The International Diabetes Federation guidelines, dated 2006, and any two of the following conditions:
# (§3) After screening, all the eligible subjects were randomized to receive either one of the three treatments orally for duration of 12 weeks: group 1—one capsule of Crominex®3+ 200 mcg once daily; group 2—one capsule 400 mcg once daily; group 3—one capsule of Placebo once daily.
# (§4) Subjects were reviewed for follow up at 4 weeks, 8 and 12 weeks of therapy. At each visit they were evaluated for efficacy and safety. Pharmacodynamic evaluation for endothelial function was conducted at baseline and end of treatment. Blood samples were collected for evaluation of biomarkers before and at end of treatment. Safety lab investigations for hematological, hepatic and renal biochemical parameters were conducted before and at the end of the study and also as and when required (in case of any adverse drug reaction (ADR)). Subjects were enquired for the presence of ADR and the same was recorded in the case report form. Compliance to therapy was assessed by pill count method.
# (§5) Assessment of endothelial function, biomarkers, safety parameters and primary and secondary efficacy parameters and data analysis were performed as described under the study with type 2 diabetic subjects in Example 1.
# (§6) When the results with Crominex® 3+ in the above two examples were highly significant, especially with the 400 mcg once daily dose in type 2 diabetics, two more clinical studies (EXAMPLES 3 & 4) were conducted at the same institute, following the same methodology as described earlier, on the individual components of Crominex® 3+, i.e., chromium chloride and Phyllanthus emblica+Shilajit, and other chromium supplements available in the market, i.e., chromium picolinate, chromium polynicotinate and chromium dinicocysteinate, in type 2 diabetics as well as in subjects with metabolic syndrome symptoms.
# lipid profile [2] = assay: Lipid profile (TC, HDL-C, LDL-C, TG, VLDL-C), type 2 diabetics
# Method: (§7) The present clinical study is a prospective, randomized, double blind, placebo-controlled study. Patients of either sex, aged 30-65 years, fasting plasma glucose of 110-126 mg/dl, a glycosylated hemoglobin (HbA1c) between 6.5% and 8% and taking stable dose of anti-diabetic treatment (metformin 1500-2000 mg/day) for the past 8 weeks prior to the screening visit; and having endothelial dysfunction defined as ≤6% change in reflection index (RI) on post salbutamol challenge test were included in the study. Patients with severe uncontrolled hyperglyceamia, uncontrolled hypertension, cardiac arrhythmia, impaired hepatic or renal function, history of malignancy or stroke, smoking, chronic alcoholism, any other serious disease requiring active treatment and treatment with any other herbal supplements, were excluded from the study.
# (§8) After screening, all the eligible subjects were randomized to receive either one of the three treatments orally for duration of 12 weeks—Group1—one capsule of Crominex®3+, 200 mcg once daily, Group 2—one capsule Crominex®3+, 400 mcg once daily; Group 3—one capsule of placebo once daily.
# as §4, with “Subjects were required for follow” for “Subjects were reviewed for follow”, “up at 4, 8 and” for “up at 4 weeks, 8 and”, “conducted at every visit. Blood samples” for “conducted at baseline and end of treatment. Blood samples”, “and at the end of” for “and at end of”, “drug reaction (ADR). Subjects were” for “drug reaction (ADR)). Subjects were”
# (§9) All the subjects had undergone complete physical examination, safety lab evaluations at baseline and at the end of the treatment. Samples were collected after an overnight fast of 12 hrs after the last dose of medication for determination of hemoglobin, glycosylated hemoglobin (HbA1c), blood urea, serum creatinine, liver function, lipid profile (Total cholesterol, High density lipoprotein cholesterol (HDL-C), low density lipoprotein cholesterol (LDL-C) using appropriate standard techniques.
# as §6
# nitric oxide (NO) [3] = assay: Nitric oxide level, spectrophotometric, type 2 diabetics
# Method: as §7, §8
# as §4, with “Subjects were required for follow” for “Subjects were reviewed for follow”, “up at 4, 8 and” for “up at 4 weeks, 8 and”, “conducted at every visit. Blood samples” for “conducted at baseline and end of treatment. Blood samples”, “and at the end of” for “and at end of”, “drug reaction (ADR). Subjects were” for “drug reaction (ADR)). Subjects were”
# as §1, §6
# [4] = test system: high sensitivity C-reactive protein (hsCRP); assay: hsCRP by ELISA, type 2 diabetics
# Method: as §7, §8
# as §4, with “Subjects were required for follow” for “Subjects were reviewed for follow”, “up at 4, 8 and” for “up at 4 weeks, 8 and”, “conducted at every visit. Blood samples” for “conducted at baseline and end of treatment. Blood samples”, “and at the end of” for “and at end of”, “drug reaction (ADR). Subjects were” for “drug reaction (ADR)). Subjects were”
# as §1, §6
# lipid profile [5] = assay: Lipid profile (TC, HDL-C, LDL-C, TG), metabolic syndrome subjects
# Text: as §9
# Patients included in the study, were of either gender, aged 30-68 years, having endothelial dysfunction defined as ≤6% change in reflection index (RI) on post salbutamol challenge test and central obesity as defined by The International Diabetes Federation guidelines, dated 2006, and any two of the following conditions: […]
# as §4, §5, §6
# [6] = Blood pressure, metabolic syndrome subjects; settings: metabolic syndrome subjects (Example 4), chromium products 400 mcg
# Text: as §2, §3, §4, §6
# [7] = Blood pressure, type 2 diabetics; settings: type 2 diabetics (Example 3), chromium products 400 mcg
# Method: as §6
# [8] = metabolic syndrome subjects (Example 4), chromium products 400 mcg, after 12 weeks of treatment
# [9] = metabolic syndrome subjects (Example 4), chromium products 400 mcg, pre-treatment
# [10] = type 2 diabetics (Example 3), chromium products 400 mcg, 12 weeks of treatment
# [11] = type 2 diabetics (Example 3), chromium products 400 mcg, post-treatment, 12 weeks
# [12] = type 2 diabetics (Example 3), chromium products 400 mcg, pre-treatment
# [13] = type 2 diabetics (Example 3), chromium products 400 mcg, 12 week treatment
structure (smiles),measurement,setting,value
"O.O.O.O.O.O.[Cl][Cr]([Cl])[Cl] [Chromium chloride, Chromium chloride (CrCl3.6H2O)]",NO,"nitric oxide (NO) [1]; MS, 400 mcg",5.5%
same,NO Post Tt,nitric oxide (NO) [1]; [8],30.99 ± 4.46 μM/L
same,Mean percentage change in NO,"nitric oxide (NO) [1]; metabolic syndrome subjects (Example 4), chromium products 400 mcg, after 12 weeks treatment",5.50 ± 1.73%
same,NO Pre Tt,nitric oxide (NO) [1]; [9],29.39 ± 4.43 μM/L
same,HDL,"lipid profile [2]; DM, 400 mcg",2.79%
same,LDL,"lipid profile [2]; DM, 400 mcg",−1.3%
same,TC,"lipid profile [2]; DM, 400 mcg",−0.28%
same,TG,"lipid profile [2]; DM, 400 mcg",−0.49%
same,Mean percentage change in HDL-C,lipid profile [2]; [10],2.79 ± 2.88 @NS %
same,Mean percentage change in LDL-C,lipid profile [2]; [10],−1.30 ± 1.42 NS %
same,Mean percentage change in Total Cholesterol,lipid profile [2]; [10],−0.28 ± 0.81 #NS %
same,Mean percentage change in Triglycerides,lipid profile [2]; [10],−0.49 ± 0.93 NS %
same,HDL-C Post Tt,lipid profile [2]; [11],39.95 ± 2.72 mg/dL
same,LDL-C Post Tt,lipid profile [2]; [11],108.93 ± 10.40 mg/dL
same,Total Cholesterol Post Tt,lipid profile [2]; [11],184.89 ± 9.67 NS mg/dl
same,Triglycerides Post Tt,lipid profile [2]; [11],180.11 ± 7.80 $ mg/dl
same,HDL-C Pre Tt,lipid profile [2]; [12],38.89 ± 2.85 mg/dL
same,LDL-C Pre Tt,lipid profile [2]; [12],110.33 ± 10.74 mg/dL
same,Total Cholesterol Pre Tt,lipid profile [2]; [12],185.42 ± 9.68 mg/dL
same,Triglycerides Pre Tt,lipid profile [2]; [12],181.00 ± 7.84 mg/dL
same,NO,"nitric oxide (NO) [3]; DM, 400 mcg",6.98%
same,Mean percentage change in NO,nitric oxide (NO) [3]; [13],6.98 ± 10.15@NS %
same,NO Post Tt,nitric oxide (NO) [3]; [11],29.60 ± 2.65 μM/L
same,NO Pre Tt,nitric oxide (NO) [3]; [12],27.74 ± 2.01 μM/L
same,hsCRP,"[4]; DM, 400 mcg",−9.92%
same,Mean percentage change in hsCRP,[4]; [13],−9.92 ± 3.86 #$NS %
same,hsCRP Post Tt,[4]; [11],2.46 ± 0.55 mg/L
same,hsCRP Pre Tt,[4]; [12],2.72 ± 0.53 mg/L
same,HDL,"lipid profile [5]; MS, 400 mcg",−1.08%
same,LDL,"lipid profile [5]; MS, 400 mcg",0.79%
same,TC,"lipid profile [5]; MS, 400 mcg",0.49%
same,TG,"lipid profile [5]; MS, 400 mcg",0.92%
same,HDL-C Post Tt,lipid profile [5]; [8],36.79 ± 5.14 NS mg/dl
same,LDL-C Post Tt,lipid profile [5]; [8],117.37 ± 9.13 NS mg/dl
same,Mean percentage change in HDL-C,lipid profile [5]; [8],−1.08 ± 3.45%
same,Mean percentage change in Total Cholesterol,lipid profile [5]; [8],0.49 ± 1.30%
same,Mean percentage change in Triglycerides,lipid profile [5]; [8],0.92 ± 1.43%
same,Total Cholesterol Post Tt,lipid profile [5]; [8],189.21 ± 10.80 NS mg/dl
same,Triglycerides Post Tt,lipid profile [5]; [8],175.26 ± 9.70 mg/dL
same,HDL-C Pre Tt,lipid profile [5]; [9],37.21 ± 5.16 mg/dL
same,LDL-C Pre Tt,lipid profile [5]; [9],116.42 ± 9.75 mg/dL
same,Total Cholesterol Pre Tt,lipid profile [5]; [9],188.37 ± 11.78 mg/dL
same,Triglycerides Pre Tt,lipid profile [5]; [9],173.68 ± 9.70 mg/dL
same,Diastolic blood pressure Post Tt,[6]; after 12 weeks of treatment,79.8 ± 2.66 NS mmHg
same,Systolic blood pressure Post Tt,[6]; after 12 weeks of treatment,122.9 ± 3.42 NS mmHg
same,Diastolic blood pressure Pre Tt,[6]; pre-treatment,80.6 ± 2.67 mmHg
same,Systolic blood pressure Pre Tt,[6]; pre-treatment,124.7 ± 3.35 mmHg
same,Diastolic blood pressure Post Tt,"[7]; post-treatment, 12 weeks",77.16 ± 1.68 NS mmHg
same,Systolic blood pressure Post Tt,"[7]; post-treatment, 12 weeks",117.26 ± 1.52 NS mmHg
same,Diastolic blood pressure Pre Tt,[7]; pre-treatment,77.05 ± 1.68 mmHg
same,Systolic blood pressure Pre Tt,[7]; pre-treatment,117.37 ± 2.50 mmHg
